Source: patent publication US20210220345A1, “METHODS FOR THE ADMINISTRATION OF COMT INHIBITORS” (Neurocrine Biosciences, Inc., priority 2018, published 2021)

Key:
[1] = cited from earlier work
CYP2C8 = molecular target: T1, CYP2C8 (Homo sapiens, UniProt P10632); settings: statement of the European approved drug label; cited from earlier work
T1 sequence (P10632 1-490): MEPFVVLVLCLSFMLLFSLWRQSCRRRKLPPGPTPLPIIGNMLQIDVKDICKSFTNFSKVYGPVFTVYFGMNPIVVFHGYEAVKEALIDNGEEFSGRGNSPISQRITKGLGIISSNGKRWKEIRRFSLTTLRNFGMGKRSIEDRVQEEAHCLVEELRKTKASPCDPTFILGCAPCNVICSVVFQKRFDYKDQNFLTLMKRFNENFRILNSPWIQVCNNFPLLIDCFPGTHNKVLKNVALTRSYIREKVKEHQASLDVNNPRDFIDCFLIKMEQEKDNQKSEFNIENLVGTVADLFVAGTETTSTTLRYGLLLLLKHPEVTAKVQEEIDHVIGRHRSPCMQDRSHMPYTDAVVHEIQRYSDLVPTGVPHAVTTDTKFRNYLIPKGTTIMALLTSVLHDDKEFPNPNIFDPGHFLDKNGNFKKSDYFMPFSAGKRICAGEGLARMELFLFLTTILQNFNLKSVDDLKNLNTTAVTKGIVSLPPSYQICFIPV

clinical = settings: human, in vivo
Experimental: This was a Phase 1, open-label, one-sequence crossover, drug-interaction study to evaluate and compare the PK of repaglinide when administered alone and concomitantly with OPC (micronized). Subjects received a single dose of repaglinide 0.5 mg on Days 1 and 15 at approximately 0800 hours. In addition, subjects received OPC 50 mg once daily on Days 2 through 15 at approximately 0800 hours.
Subjects were required to fast overnight from midnight (2400 hours) until 2 hours postdose on Days 1 through 15. Blood samples for pharmacokinetic analysis of OPC and its metabolites and for repaglinide were collected at scheduled times during the study. Safety and tolerability assessments were conducted at scheduled times during the study.
Blood samples to determine repaglinide plasma concentrations were collected on Days 1 and 15 at approximately 30 minutes prior to repaglinide dosing and at 0.25, 0.5, 0.75, 1, 1.5, 2, 3, 4, 5, 6, 8, 10, 12, and 24 hours post-repaglinide dosing.
PK parameters for OPC and its metabolites and repaglinide were calculated using non-compartmental methods.
A statistical assessment of the drug-drug interaction between repaglinide and opicapone is provided below. A repeated measures linear mixed model with fixed effect for treatment and random effect for subject was utilized. An unstructured variance-covariance matrix was assumed for the mixed model analysis. Geometric means (GM), ratios of geometric means (GMR), and their confidence intervals (CI) are shown on the original scale of measurement. Within-Subject CV was calculated as 100*sqrt[(sA2+sC2−2sAC)/2], where sA2 and sC2 are the estimated variances on the log scale for the two treatments, and sAC is the corresponding estimated covariance.

[2] = non-micronized opicapone 25 mg single dose, repaglinide 0.5 mg

| Tmax (clinical) | half-life (clinical) | AUC(0-inf) (clinical; AUC0-inf, GM) | AUC(0-t) (clinical; AUC0-t, GM) | Cmax (clinical; Cmax, GM) | Compound | increase in repaglinide AUC0-tlast when taken with opicapone vs. repaglinide alone [1, 2] | increase in repaglinide Cmax when taken with opicapone vs. repaglinide alone [1, 2] | average increase in the rate of exposure to repaglinide when co-administered with opicapone ([1]; opicapone 25 mg, less than optimal formulation, rate but not extent of exposure increased) | inhibition of CYP2C8 (CYP2C8) |
| --- | --- | --- | --- | --- | --- | --- | --- | --- | --- |
|  |  |  |  |  | Cc1c(Cl)c(C)[n+]([O-])c(Cl)c1-c1noc(-c2cc(O)c(O)c([N+](=O)[O-])c2)n1 [opicapone, 5-[3-(2,5-dichloro-4,6-dimethyl-1-oxy-pyridin-3-yl)-[1,2,4]oxadiazol-5-yl]-3-nitrobenzene-1,2-diol] | 9% | 31% | 30% | weak inhibitor |
| 30 min | 38.4 min | 11.6 ng·h/mL | 10.9 ng·h/mL | 10.1 ng/mL | CCOc1cc(CC(=O)N[C@@H](CC(C)C)c2ccccc2N2CCCCC2)ccc1C(=O)O [Repaglinide, repaglinide] |  |  |  |  |
